The subject of data set [1] is MV4-11 cells. The data set is described as follows: Flow cytometry apoptosis analysis (Annexin V-APC/7-AAD). The format is cell-based, human. The note with it: MV4-11. As for the experimental part:
(§1) A decrease in the S phase of the cell cycle was also observed from 24% (day 8) to 20% (day 10), 13% (day 12).
(§2) In a 12-well plate, 2 mL exponentially growing MV4-11 cells were plated with a density of 2 × 10^5 cells/mL. […] Culture media and drugs were replaced every 2–3 days and cells were split back to a density of 2 × 10^5 cells/mL at the same time. Cells were harvested on days 8, 10, 12 and split to allow the analysis of cell cycle and Annexin V staining simultaneously. The apoptosis ratio was detected by an Annexin V-APC/7-AAD double staining assay (SONY 3804610) and cells were prepared according to the manufacturer’s recommendations. Cells for the cell cycle analysis were collected by centrifugation at 500× g for 5 min at 4 °C. The pellets were washed once with cold PBS and then fixed with 70% ethanol on ice for 30 min. Afterwards, the cells were washed once with cold PBS and stained with propidium iodide (Invitrogen P3566) for 30 min at 37 °C. Samples were measured using an Attune NxT acoustic focusing cytometer (Life Technologies), data were analyzed by FlowJo.
Background: A flow cytometer gives signals particle by particle.

The test system of the next data set is KOPN8 cells (MLL-ENL). The data set can be described thus: Cell proliferation, trypan blue counting. Conditions: Homo sapiens, KOPN-8, 360 h, 15-day treatment, read-out: EC50 of the proliferation inhibition. The format is cell-based. On the procedure: (§3) For assessment of cell proliferation and viability in human cell lines, exponentially growing cells were placed, in triplicate, in 96-well plates at a density of 35,000 cells/well at a final volume of 100 µL. […] The viable cell number was determined every 3–4 days for up to 15 days to 21 days using trypan blue counting using Cellometer Disposable Counting Chambers for the Cellometer Mini Automated Cell Counter.

In a further data set the test system is NOMO-1 cells (MLL-AF9). The data set is described as follows: Cell proliferation, trypan blue counting. In kind it is cell-based. The note with it: Homo sapiens, 360 h; NOMO-1 (AF9), 15-day treatment; read-out: EC50 of the proliferation inhibition. On the procedure:
as §3

A further data set deals with MOLM-13 cells (MLL-AF9). The data set is described as follows: Cell proliferation, trypan blue counting. The format is cell-based. The note with it: Homo sapiens, 360 h; MOLM-13 (AF9), 15-day treatment; read-out: EC50 of the proliferation inhibition.
For data set [2], the system named is MV4-11 cells. The data set is described as follows: Flow cytometry cell cycle analysis (propidium iodide). The format is cell-based, human. Conditions: MV4-11, 1 µM. On the procedure:
as §1, §2

The subject of the next data set is H3K79me2 in MV4-11 cells. The data set is described as follows: Western blot of H3K79me2 normalized to total H3. In kind it is cell-based, human. Conditions: MV4-11, 4 days, increasing concentrations. On the procedure:
Next, we evaluated the effect on the demethylation of H3K79 in MLL-AF9 MOLM13 cells (Figure 7B).
The non-adherent cell lines MV4-11, MOLM-13, and KOPN8 exponentially growing cells were plated in 12-well plates (1 plate for each experiment) at a rate of 500,000 cells per well at a final volume of 2 mL. The cells were incubated in the presence of increasing inhibitor concentrations (0.1, 0.32, 1, 3.2, 10 µM). The cells (1 to 2 million) were harvested at the time chosen according to the line in order to extract the histones and the RNAs.
For the isolation of histones from cells, 1 to 2 million cells were collected, after exposure to the chosen treatment, by centrifugation at 200× g and lysed by 5 min of incubation on ice in 250 μL of the nuclear extraction buffer (10 mM Tris-HCl, 10 mM MgCl2, 25 mM KCl, 1% Triton X-100, 8.6% sucrose, Roche Protease inhibitor tablet 1836145). The nuclei were collected by centrifugation at 600× g for 5 min at 4 °C. The supernatant was removed and the histones were extracted for 1 h with 0.4 N cold sulfuric acid. The extracts were clarified by centrifugation at 10,000× g for 10 min at 4 °C and transferred to a microcentrifuge tube containing a 10× volume of ice-cold acetone. The histones were precipitated at ‒20 °C overnight and recovered by centrifugation at 1500× g for 10 min in the form of a pellet and then resuspended in 80 μL of water. Histones were quantified by absorbance measured by a nanodrop at 276 nm.
After extraction, the histones (500ng) were separated on 4–20% Tris-Glycine gels (Invitrogen) and transferred onto a nitrocellulose membrane ([…]) using the iBlot® Gel Transfer Stacks Nitrocellulose kit Mini (Invitrogen). After blocking nonspecific sites for 1 h at room temperature in a solution of 1X TBS at 5% milk, the membrane was incubated with rabbit anti-H3K79me2 (ab3594, 1/1000) or anti-H3 (ab1791)1/1000) overnight at 4 °C or 1 h at RT. The membrane was then washed three times for 5 min in a 1X TBS solution containing 0.05% Tween20 and was then incubated with an HRP anti-rabbit secondary antibody (NA934V, 1/10,000) for 1 h at RT. […]
(A western blot detects proteins with antibodies after separation by electrophoresis.)

In the next data set the test system is MV4-11 cells (MLL-AF4). The data set can be described thus: Cell proliferation and viability, trypan blue counting. The format is cell-based, human.
Another data set is described as follows: Microsomal stability. In kind it is in vitro ADME. Conditions: mouse, liver microsomes.
The target in a further data set is recombinant hDOT1L (Homo sapiens, UniProt Q8TEK3). The data set is described as follows: AlphaLISA DOT1L enzymatic inhibition assay on purified nucleosomes.
Sequence of recombinant hDOT1L (Q8TEK3 1-416): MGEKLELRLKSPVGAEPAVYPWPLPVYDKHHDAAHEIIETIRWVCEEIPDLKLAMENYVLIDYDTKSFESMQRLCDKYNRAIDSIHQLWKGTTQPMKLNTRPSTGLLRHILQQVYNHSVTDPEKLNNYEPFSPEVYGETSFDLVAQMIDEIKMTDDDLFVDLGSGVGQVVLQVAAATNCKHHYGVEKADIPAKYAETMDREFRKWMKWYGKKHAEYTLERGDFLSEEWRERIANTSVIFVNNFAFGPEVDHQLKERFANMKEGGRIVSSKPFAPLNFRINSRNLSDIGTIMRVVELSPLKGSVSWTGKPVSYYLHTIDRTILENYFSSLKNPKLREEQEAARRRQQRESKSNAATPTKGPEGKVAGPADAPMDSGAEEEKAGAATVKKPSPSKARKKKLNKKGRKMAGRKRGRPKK

From publication PMC8434109, “Synthesis and Biological Activity of a Cytostatic Inhibitor of MLLr Leukemia Targeting the DOT1L Protein” (Molecules, 2021) come the findings set out here.

For orientation: half-life means the time in which the quantity being followed falls by half. A low value points to fast loss. As a reminder, the IC50 is the concentration at which inhibition is half-maximal.

On to `CC(C)N(C[C@H]1O[C@@H](n2cnc3c(N)ncnc32)[C@H](O)[C@@H]1O)[C@H]1C[C@@H](CCc2nc3cc(C(C)(C)C)ccc3[nH]2)C1` [EPZ-5676, reference compound], for which the effect on apoptosis entry with MV4-11 cells [1] is recorded as “increase in apoptosis”. For the same molecule, the EC50 with KOPN8 cells (MLL-ENL) stood at 0.086 ± 0.004 µM; in the data set with NOMO-1 cells (MLL-AF9), 0.562 ± 0.015 µM; in the data set with MOLM-13 cells (MLL-AF9) it was 0.092 ± 0.002 µM; in the data set with MV4-11 cells (MLL-AF4) (Homo sapiens, 360 h, MV4-11 (AF4), 15-day treatment, read-out: EC50 of the proliferation inhibition), 0.021 ± 0.001 µM. Moreover, the “effect on the cell cycle” value in the data set with MV4-11 cells [2] is “increase in cells in subG1”. Besides, the “H3K79me2 methylation compared to DMSO treated cells” value in the data set on H3K79me2 in MV4-11 cells is reported as “efficient decrease in methylation”. In addition, the “effect on cell viability / proliferation” value with MV4-11 cells (MLL-AF4) (MV4-11, after 8 days of treatment) was “cell viability decreased by half”. The molecule also displayed a half-life in “Microsomal stability” of 5.7 min.
Take `CC(C)N(CCCNC(=O)Nc1ccc(C(C)(C)C)cc1)C[C@H]1O[C@@H](n2ccc3c(N)ncnc32)[C@H](O)[C@@H]1O` [EPZ-4777, reference compound]: the half-life in “Microsomal stability” came to 5.3 min.
Take `CC(C)[C@@H](CCCNC(=O)Nc1ccc(C(C)(C)C)cc1)N[C@H]1C[C@@H](n2cnc3c(N)ncnc32)[C@H](O)[C@@H]1O` [Dia1, 1-((R)-4-(((1S,2R,3S,4R)-4-(6-amino-9H-purin-9-yl)-2,3-dihydroxycyclopentyl)amino)-5-methylhexyl)-3-(4-(tert-butyl)phenyl)urea]: the IC50 at recombinant hDOT1L came out at 0.316 µM.
